Patent US20110306597A1, “Nicotinamide Derivatives” (priority 2008, published 2011)
Counter-ions that a name gives are not always drawn.

What was measured:
human recombinant H-PGDS [1] = biological target: T1, human recombinant H-PGDS (Homo sapiens, UniProt O60760); experiment: Slightly modified h-PGDS TBA enzyme assay (Examples 529, 565, 566, 574-588 and 591); format: biochemical; conditions: slightly modified assay (Examples 529, 565, 566, 574-588 and 591); 1:40,000 human recombinant H-PGDS
Procedure: Prostaglandin D Synthase (PGDS) converts the substrate prostaglandin H2 (PGH2) to prostaglandin D2. The depletion of PGH2 was measured via an Fe(II) reduction of the remaining PGH2 to malondialdehyde (MDA) and 12-HHT. The enzyme assay is based on the quantitative formation of a fluorescent complex from the non-fluorescent compounds MDA and 2-thiobarbituric acid (TBA), substantially as described in U.S. patent application publication US-2004/152148 by Lombardt.
Examples 529, 565, 566, 574-588 and 591 were tested in a slightly modified assay: The enzyme assay (30 μls during biological process) contained 100 mM Trizma pH 8.0, 100 μM MgCl2, 0.1 mg/ml IgG Rabbit serum, 5.0 μM PGH2 (Cayman; ethanol solution, #17020), 2.5 mM L-Glutathione (Sigma; reduced form #G4251), 1:40,000 human recombinant H-PGDS (from 1 mg/ml), 0.5% DMSO and inhibitor (varying concentration). 3 μls of diluted inhibitor (dissolved in DMSO) was plated into a 384-well assay plate followed by a 24 μl addition of an enzyme solution containing h-PGDS, Trizma, MgCl2, IgG and L-Glutathione. After pre-incubation of inhibitor and enzyme solution for 10 minutes at room temperature, the reaction was initiated with a 3 μl addition of substrate solution in 10 mM HCl. The reaction was terminated after 40 second by the addition of 3 μl stop buffer containing FeCl2 and citric acid. After addition of 45 μls of TBA plates were heated for one hour in a 70° C. oven. Plates were cooled at room temperature overnight and read on a plate reader the next day with excitation @ 530 nm and emission @ 560 nm. IC50's of inhibitors were calculated with a 4-parameter fit using 11 inhibitor concentrations in duplicate with ½ log serial dilutions. Controls on each plate included no inhibitor (zero % effect) and an inhibitor 500-fold in excess of its' IC50 (100% effect). The highest inhibitor concentration tested was typically 10 μM.

human recombinant H-PGDS [2] = biological target: T1, human recombinant H-PGDS; experiment: Fluorescence Intensity h-PGDS TBA Enzyme Assay; format: biochemical; conditions: 1:175,000 human recombinant H-PGDS, highest inhibitor concentration typically 1 μM
Outline: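 Recombinant human H-PGDS preincubated 10 min at room temperature with inhibitor in 100 mM Tris pH 8.0, 100 μM MgCl2, 2.5 mM glutathione, 0.5% DMSO; 5.0 μM PGH2 added, stopped after 42 s with FeCl2/citric acid. Remaining PGH2 measured as MDA–TBA fluorescence (ex 530/em 565 nm); IC50 by 4-parameter fit, 11 concentrations.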

T1 sequence (O60760 whole entry): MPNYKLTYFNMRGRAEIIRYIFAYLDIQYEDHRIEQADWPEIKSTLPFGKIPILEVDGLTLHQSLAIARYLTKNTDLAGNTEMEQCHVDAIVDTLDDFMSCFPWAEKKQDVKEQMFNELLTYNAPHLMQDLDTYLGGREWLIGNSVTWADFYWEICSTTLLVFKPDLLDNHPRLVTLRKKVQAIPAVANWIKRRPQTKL

| IC50 (human recombinant H-PGDS [1]) [nM] | IC50 (human recombinant H-PGDS [2]) [nM] | Compound |
| --- | --- | --- |
| 11.3 | – | O=C(N[C@H]1[C@@H]2CN(c3ncccn3)C[C@@H]21)c1ccc(-c2cccc(F)c2)nc1 [Example 529, 6-(3-Fluorophenyl)-N-[(1R,5S,6s)-3-pyrimidin-2-yl-3-azabicyclo[3.1.0]hex-6-yl]nicotinamide] |
| 114 | – | CC(=O)N1CCC(CNC(=O)c2ccc(-c3cc(F)ccc3O)nc2)CC1 [Example 565, N-[(1-Acetylpiperidin-4-yl)methyl]-6-(5-fluoro-2-hydroxyphenyl)nicotinamide] |
| 349 | – | CCOCCNC(=O)c1ccc(-c2cc(F)ccc2O)nc1 [Example 566, N-(2-Ethoxyethyl)-6-(5-fluoro-2-hydroxyphenyl)nicotinamide] |
| – | 10.6 | COc1ccc(CNC(=O)c2ccc(-c3cc(F)cc(F)c3)nc2)cc1OC [Example 567, 6-(3,5-Difluorophenyl)-N-(3,4-dimethoxybenzyl)nicotinamide] |
| – | 25.1 | CCCOCCCNC(=O)c1ccc(-c2cc(F)cc(F)c2)nc1 [Example 569, 6-(3,5-Difluorophenyl)-N-(3-propoxypropyl)nicotinamide] |
| – | 32.5 | O=C(NCC1CCCN(c2ccccn2)C1)c1ccc(-c2cc(F)cc(F)c2)nc1 (centres unmarked) [Example 570, 6-(3,5-Difluorophenyl)-N-[(1-pyridin-2-ylpiperidin-3-yl)methyl]nicotinamide] |
| – | 62.1 | CNS(=O)(=O)c1ccc(CNC(=O)c2ccc(-c3cc(F)cc(F)c3)nc2)cc1 [Example 571, 6-(3,5-Difluorophenyl)-N-{4-[(methylamino)sulfonyl]benzyl}nicotinamide] |
| – | 0.886 | O=C(NC[C@@H]1COc2ccccc2C1)c1ccc(-c2cccc(F)c2)nc1 [Example 572] |
| – | 3.24 | O=C(NC[C@H]1COc2ccccc2C1)c1ccc(-c2cccc(F)c2)nc1 [Example 573] |
| 1200 | – | O=C(NCCN1CCCC1)c1ccc(-c2cccc(F)c2)nc1 [Example 574, 6-(3-Fluorophenyl)-N-(2-pyrrolidin-1-ylethyl)nicotinamide] |
| 93.4 | – | CCCNC(=O)c1ccc(-c2cccc(F)c2)nc1 [Example 576, 6-(3-Fluorophenyl)-N-propylnicotinamide] |
| 275 | – | O=C(NCCO)c1ccc(-c2cccc(F)c2)nc1 [Example 577, 6-(3-Fluorophenyl)-N-(2-hydroxyethyl)nicotinamide] |
| 758 | – | CNCCNC(=O)c1ccc(-c2cccc(F)c2)nc1 [Example 578, 6-(3-Fluorophenyl)-N-(2-(methylamino)ethyl)nicotinamide hydrochloride] |
| 128 | – | O=C(NCC1CC1)c1ccc(-c2cccc(F)c2)nc1 [Example 579, N-(Cyclopropylmethyl)-6-(3-fluorophenyl)nicotinamide] |
| 277 | – | CC(C)OCCNCCNC(=O)c1ccc(-c2cccc(F)c2)nc1 [Example 583, 6-(3-Fluorophenyl)-N-(2-(2-isopropoxyethylamino)ethyl)nicotinamide] |
| – | 38.9 | N-(3-Fluorobenzyl)-6-(3- methylphenyl)nicotinamide [Example 238] |
| – | 187 | N-(4-Fluorophenyl)-6-(3- methoxyphenyl)nicotinamide [Example 307] |
| – | 174 | N-[2-(Benzyloxy)ethyl]-5-chloro-6-(3-fluorophenyl)nicotinamide [Example 555] |

Further lines, the compound ahead of its results:

| Compound | IC50 (human recombinant H-PGDS [1]) [nM] | IC50 (human recombinant H-PGDS [2]) [nM] |
| --- | --- | --- |
| CCc1cn2nc(N3C[C@H](NC(=O)c4ccc(-c5cccc(F)c5)nc4)[C@@H](O)C3)ccc2n1 [Example 564, N-[(3S,4S)-1-(2-ethylimidazo[1,2-b]pyridazin-6-yl)-4-hydroxypyrrolidin-3-yl]-6-(3-fluorophenyl)nicotinamide] | – | 61.6 |
| O=C(NCC1C(=O)Nc2ccccc21)c1ccc(-c2cc(F)cc(F)c2)nc1 (centres unmarked) [Example 568, 6-(3,5-Difluorophenyl)-N-[(2-oxo-2,3-dihydro-1H-indol-3-yl)methyl]nicotinamide] | – | 2.63 |
| O=C(NCCN1CCC(O)CC1)c1ccc(-c2cccc(F)c2)nc1 [Example 575, 6-(3-Fluorophenyl)-N-[2-(4-hydroxypiperidin-1-yl)ethyl]nicotinamide] | 162 | – |
| CCNC(=O)c1ccc(-c2cccc(F)c2)nc1 [Example 580, N-Ethyl-6-(3-fluorophenyl)nicotinamide] | 222 | – |
| O=C(O)CCNC(=O)c1ccc(-c2cccc(F)c2)nc1 [Example 581, N-{[6-(3-Fluorophenyl)pyridin-3-yl]carbonyl}-beta-alanine] | 197 | – |
| O=C(CCNC(=O)c1ccc(-c2cccc(F)c2)nc1)N[C@H]1CC[C@H](O)CC1 [Example 582, 6-(3-Fuorophenyl)-N-{3-[(trans-4-hydroxycyclohexyl)amino]-3-oxopropyl}nicotinamide] | 34.2 | – |
| O=C(N[C@H]1C[C@H]2CC[C@@H](C1)N2)c1ccc(-c2cccc(F)c2)nc1 [Example 584, N-[(3-endo)-8-azabicyclo[3.2.1]oct-3-yl]-6-(3-fluorophenyl)nicotinamide] | 196 | – |
| CCCN1[C@@H]2CC[C@H]1C[C@@H](NC(=O)c1ccc(-c3cccc(F)c3)nc1)C2 [Example 585, 6-(3-Fluorophenyl)-N-[(3-endo)-8-propyl-8-azabicyclo[3.2.1]oct-3-yl]nicotinamide] | 176 | – |
| CC(C)(C)OC(=O)N1[C@@H]2CC[C@H]1C[C@@H](NC(=O)c1ccc(-c3cccc(F)c3)nc1)C2 [Example 586, tert-Butyl (3-endo)-3-({[6-(3-fluorophenyl)pyridin-3-yl]carbonyl}amino)-8-azabicyclo[3.2.1]octane-8-carboxylate] | 8.78 | – |
| O=C(N[C@@H]1C[C@H]2CC[C@@H](C1)N2)c1ccc(-c2cccc(F)c2)nc1 [Example 587, N-[(3-exo)-8-azabicyclo[3.2.1]oct-3-yl]-6-(3-fluorophenyl)nicotinamide] | 39.2 | – |
| CC(C)(C)OC(=O)N1[C@@H]2CC[C@H]1C[C@H](NC(=O)c1ccc(-c3cccc(F)c3)nc1)C2 [Example 588, tert-Butyl (3-exo)-3-({[6-(3-fluorophenyl)pyridin-3-yl]carbonyl}amino)-8-azabicyclo[3.2.1]octane-8-carboxylate] | 15.4 | – |
| CC(C)S(=O)(=O)N1[C@@H]2CC[C@H]1C[C@H](NC(=O)c1ccc(-c3cccc(F)c3)nc1)C2 [Example 591, 6-(3-Fluorophenyl)-N-[(3-exo)-8-(isopropylsulfonyl)-8-azabicyclo[3.2.1]oct-3-yl]nicotinamide] | 3.76 | – |
| CNC(=O)N1[C@@H]2CC[C@H]1C[C@H](NC(=O)c1ccc(-c3cccc(F)c3)nc1)C2 [Example 594, (3-exo)-3-({[6-(3-Fluorophenyl)-pyridin-3-yl]carbonyl}amino)-N-methyl-8-azabicyclo[3.2.1]octane-8-carboxamide] | – | 17 |
| CN(C)C(=O)N1[C@@H]2CC[C@H]1C[C@H](NC(=O)c1ccc(-c3cccc(F)c3)nc1)C2 [Example 595, (3-exo)-3-({[6-(3-Fluorophenyl)-pyridin-3-yl]carbonyl}amino)-N,N-dimethyl-8-azabicyclo[3.2.1]octane-8-carboxamide] | – | 3 |
| O=C(N[C@@H]1C[C@H]2CC[C@@H](C1)N2C(=O)N1CCC(O)CC1)c1ccc(-c2cccc(F)c2)nc1 [Example 596, 6-(3-Fluorophenyl)-N-(3-exo)-8-[(4-hydroxypiperidin-1-ylcarbonyl]-8-azabicyclo[3.2.1]octyl-3-yl}nicotinamide] | – | 11 |
| O=C(N[C@@H]1C[C@H]2CC[C@@H](C1)N2C(=O)NCCO)c1ccc(-c2cccc(F)c2)nc1 [Example 597, (3-exo)-3-({[6-(3-Fluorophenyl)-pyridin-3-yl]carbonyl}amino)-N-(2-hydroxyethyl)-8-azabicyclo[3.2.1]octane-8-carboxamide] | – | 35 |
| N-(4-Fluorophenyl)-6-(3- fluorophenyl)nicotinamide [Example 425] | – | 52.6 |
